Among the test systems are OVCAR-3 ovarian; 786-0 renal; SK-MEL-5 melanoma; A498 renal; MCF7 breast; HCT-116 colon; NCI-H23 lung; NCI/ADR-RES ovarian; M14 melanoma; CAKI-1 renal; MDA-N; HT29 colon; PC-3 prostate; SK-MEL-2 melanoma; BT-549 breast; TK-10 renal.
Experiment in all cases: inhibition of tumour cell growth, NCI panel, 48 h

Structures are written as SMILES.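 Protocol summary: plate cells (96-well), add compound at 5 concentrations, incubate 48 h, interpolate endpoints linearly. TGI marks complete inhibition of growth.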 A value given as a limit tells only on which side of the number the result lay.

In the case of `CC(=O)c1c2c(cc3c1CC1(C3)Cc3ccc4c(c3C1=O)CCC4)CCC2` (stereo not given), the TGI was over 100 µM with OVCAR-3 ovarian; over 100 µM in the test on 786-0 renal; 38.5 µM in the test with SK-MEL-5 melanoma; over 100 µM in the test on A498 renal; over 100 µM with MCF7 breast; over 100 µM in the test on HCT-116 colon. The TGI is over 100 µM in the test with NCI-H23 lung; 17.7 µM in the test on NCI/ADR-RES ovarian; over 100 µM in the test on M14 melanoma; over 100 µM in the test on CAKI-1 renal; over 100 µM in the test on MDA-N; over 100 µM with HT29 colon. Besides, the TGI with PC-3 prostate, in the test on SK-MEL-2 melanoma, in the test with BT-549 breast and in the test on TK-10 renal was over 100 µM throughout.

Regarding `Cn1c2c(c3ccccc31)CC(=O)N1CCCC(C1)CC21OCCO1` (stereo not given), the TGI with OVCAR-3 ovarian, in the test with 786-0 renal, with SK-MEL-5 melanoma, in the test with A498 renal, in the test on MCF7 breast and in the test on HCT-116 colon was over 100 µM each time. Further, the TGI in the test with NCI-H23 lung, in the test on NCI/ADR-RES ovarian, with M14 melanoma, in the test on CAKI-1 renal, in the test with MDA-N and in the test with HT29 colon was over 100 µM throughout. Also, the TGI in the test with PC-3 prostate, with SK-MEL-2 melanoma, in the test on BT-549 breast and with TK-10 renal was over 100 µM throughout.

On to `CC(=O)O[C@@H]1[C@@H](C)[C@]2(CC(c3ccoc3)OC2O)C2CCC3O[C@]3(C)[C@]2(C)[C@@H]1OC(C)=O` (stereo not given in full), for which the TGI in the test with OVCAR-3 ovarian was over 100 µM; in the test on 786-0 renal it was 39.9 µM; with SK-MEL-5 melanoma it was 64.3 µM; in the test on A498 renal, over 100 µM; in the test on MCF7 breast it was over 100 µM; with HCT-116 colon, over 100 µM. In addition, the TGI with NCI-H23 lung, in the test with NCI/ADR-RES ovarian, in the test with M14 melanoma, in the test with CAKI-1 renal, in the test on MDA-N and with HT29 colon was over 100 µM throughout. For the same compound, the TGI in the test with PC-3 prostate was over 100 µM; in the test on SK-MEL-2 melanoma it was over 100 µM; in the test with BT-549 breast, 63.1 µM; in the test with TK-10 renal, over 100 µM.

In the case of `CCOC(=O)C1=COC(C)(C)CC1=O`, the TGI in the test on OVCAR-3 ovarian, in the test on 786-0 renal, in the test with SK-MEL-5 melanoma, in the test on A498 renal, in the test on MCF7 breast and in the test with HCT-116 colon was over 100 µM each time. Also, the TGI in the test on NCI-H23 lung, with NCI/ADR-RES ovarian, with M14 melanoma, with CAKI-1 renal, with MDA-N and with HT29 colon was over 100 µM throughout. The TGI in the test on PC-3 prostate, in the test with SK-MEL-2 melanoma, in the test with BT-549 breast and in the test with TK-10 renal was over 100 µM each time.

For the compound `C=CCC1(O)C(=O)OC2C(O)COC21O` (stereo not given), the TGI with OVCAR-3 ovarian, with 786-0 renal, in the test with SK-MEL-5 melanoma, in the test with A498 renal, in the test with MCF7 breast and with HCT-116 colon was over 100 µM in each case. Moreover, the TGI in the test with NCI-H23 lung, with NCI/ADR-RES ovarian, with M14 melanoma, with CAKI-1 renal, in the test with MDA-N and in the test on HT29 colon was over 100 µM each time. For the same compound, the TGI in the test with PC-3 prostate, with SK-MEL-2 melanoma, with BT-549 breast and with TK-10 renal was over 100 µM throughout.

The values are drawn from PubChem BioAssay (NCI).
